Results as given in ChEMBL document CHEMBL1201862, “PubChem BioAssay data set” (2004).
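Protocol summary: plate cells (96-well), add compound at 5 concentrations, incubate 48 h, interpolate endpoints linearly. GI50 = concentration required for 50% inhibition of growth.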 Active and inactive are the calls of the source. Cut-off read from the data, not from the text of the source: active = GI50 up to about 1.1 µM and inactive = higher.

Experiments:
Assay in all cases: DTP human tumour cell line panel, 48 h
SK-MEL-5 = test system: SK-MEL-5
OVCAR-8 = test system: OVCAR-8
M14 = test system: M14
HCT-15 = test system: HCT-15
NCI-H460 = test system: NCI-H460
NCI/ADR-RES = test system: NCI/ADR-RES
CCRF-CEM = test system: CCRF-CEM
RPMI-8226 = test system: RPMI-8226
NCI-H226 = test system: NCI-H226
786-0 = test system: 786-0
KM12 = test system: KM12
UO-31 = test system: UO-31
DU-145 = test system: DU-145
SR = test system: SR
MOLT-4 = test system: MOLT-4
SF-268 = test system: SF-268
A498 = test system: A498
NCI-H23 = test system: NCI-H23
OVCAR-4 = test system: OVCAR-4
HL-60 = test system: HL-60
MCF7 = test system: MCF7
UACC-62 = test system: UACC-62
HCT-116 = test system: HCT-116
SF-539 = test system: SF-539
Hs-578T = test system: Hs-578T
SK-MEL-28 = test system: SK-MEL-28
ACHN = test system: ACHN
MDA-MB-231 = test system: MDA-MB-231
U-251 = test system: U-251
SW-620 = test system: SW-620
OVCAR-5 = test system: OVCAR-5
SF-295 = test system: SF-295
SN12C = test system: SN12C
HT-29 = test system: HT-29
COLO 205 = test system: COLO 205
K562 = test system: K562
SNB-19 = test system: SNB-19
PC-3 = test system: PC-3
TK-10 = test system: TK-10
MDA-MB-435 = test system: MDA-MB-435
CAKI-1 = test system: CAKI-1
OVCAR-3 = test system: OVCAR-3
SK-OV-3 = test system: SK-OV-3
SNB-75 = test system: SNB-75
SK-MEL-2 = test system: SK-MEL-2
HOP-62 = test system: HOP-62
MDA-N = test system: MDA-N
HOP-92 = test system: HOP-92
A549 = test system: A549
UACC-257 = test system: UACC-257
T47D = test system: T47D
RXF 393 = test system: RXF 393
HCC 2998 = test system: HCC 2998
Malme-3M = test system: Malme-3M
NCI-H522 = test system: NCI-H522
EKVX = test system: EKVX
IGROV-1 = test system: IGROV-1
LOX IMVI = test system: LOX IMVI

O=C1OCCC[C@H]2O[C@@H](COCc3ccccc3)C[C@@H]12
GI50 (SK-MEL-5): > 100 µM (inactive) | GI50 (OVCAR-8): > 100 µM (inactive) | GI50 (M14): > 100 µM (inactive) | GI50 (HCT-15): > 100 µM | GI50 (NCI-H460): > 100 µM (inactive) | GI50 (NCI/ADR-RES): > 100 µM (inactive) | GI50 (CCRF-CEM): > 100 µM (inactive) | GI50 (RPMI-8226): > 100 µM (inactive) | GI50 (NCI-H226): > 100 µM (inactive) | GI50 (786-0): > 100 µM (inactive) | GI50 (KM12): > 100 µM (inactive) | GI50 (UO-31): > 100 µM (inactive) | GI50 (DU-145): > 100 µM (inactive) | GI50 (SR): > 100 µM (inactive) | GI50 (MOLT-4): > 100 µM (inactive) | GI50 (SF-268): > 100 µM (inactive) | GI50 (A498): > 100 µM (inactive) | GI50 (NCI-H23): > 100 µM (inactive) | GI50 (OVCAR-4): > 100 µM (inactive) | GI50 (HL-60): > 100 µM (inactive) | GI50 (MCF7): > 100 µM (inactive) | GI50 (UACC-62): > 100 µM (inactive) | GI50 (HCT-116): > 100 µM (inactive) | GI50 (SF-539): > 100 µM (inactive) | GI50 (Hs-578T): > 100 µM (inactive) | GI50 (SK-MEL-28): > 100 µM (inactive) | GI50 (ACHN): > 100 µM (inactive) | GI50 (MDA-MB-231): > 100 µM (inactive) | GI50 (U-251): > 100 µM (inactive) | GI50 (SW-620): > 100 µM (inactive) | GI50 (OVCAR-5): > 100 µM (inactive) | GI50 (SF-295): > 100 µM (inactive) | GI50 (SN12C): > 100 µM (inactive) | GI50 (HT-29): > 100 µM (inactive) | GI50 (COLO 205): > 100 µM (inactive) | GI50 (K562): > 100 µM (inactive) | GI50 (SNB-19): > 100 µM (inactive) | GI50 (PC-3): > 100 µM (inactive) | GI50 (TK-10): > 100 µM (inactive) | GI50 (MDA-MB-435): > 100 µM (inactive) | GI50 (CAKI-1): > 100 µM (inactive) | GI50 (OVCAR-3): > 100 µM (inactive) | GI50 (SK-OV-3): > 100 µM (inactive) | GI50 (SNB-75): > 100 µM (inactive) | GI50 (SK-MEL-2): > 100 µM (inactive) | GI50 (HOP-62): > 100 µM (inactive) | GI50 (MDA-N): > 100 µM (inactive) | GI50 (HOP-92): > 100 µM (inactive) | GI50 (A549): > 100 µM (inactive) | GI50 (UACC-257): > 100 µM (inactive) | GI50 (T47D): > 100 µM (inactive)

COc1cc2c(c(OC)c1OC)C(=O)[C@H](O)[C@H]2NC(N)=O
GI50 (SK-MEL-5): 40.7 µM (inactive) | GI50 (OVCAR-8): > 100 µM (inactive) | GI50 (RXF 393): 47.8 µM (inactive) | GI50 (M14): 47.6 µM (inactive) | GI50 (HCT-15): 27.7 µM | GI50 (NCI-H460): 66.8 µM (inactive) | GI50 (HCC 2998): > 100 µM (inactive) | GI50 (NCI/ADR-RES): > 100 µM (inactive) | GI50 (CCRF-CEM): > 100 µM (inactive) | GI50 (RPMI-8226): > 100 µM (inactive) | GI50 (NCI-H226): > 100 µM (inactive) | GI50 (786-0): > 100 µM (inactive) | GI50 (KM12): > 100 µM (inactive) | GI50 (UO-31): > 100 µM (inactive) | GI50 (DU-145): > 100 µM (inactive) | GI50 (MOLT-4): 95.9 µM (inactive) | GI50 (SF-268): > 100 µM (inactive) | GI50 (NCI-H23): 53.8 µM (inactive) | GI50 (HL-60): 90.8 µM (inactive) | GI50 (MCF7): > 100 µM (inactive) | GI50 (UACC-62): 17.6 µM (inactive) | GI50 (Malme-3M): > 100 µM (inactive) | GI50 (HCT-116): 79.4 µM (inactive) | GI50 (SF-539): > 100 µM (inactive) | GI50 (Hs-578T): 60 µM (inactive) | GI50 (SK-MEL-28): > 100 µM (inactive) | GI50 (NCI-H522): > 100 µM (inactive) | GI50 (ACHN): 34.1 µM (inactive) | GI50 (MDA-MB-231): 86.3 µM (inactive) | GI50 (U-251): 44.2 µM (inactive) | GI50 (SW-620): > 100 µM (inactive) | GI50 (OVCAR-5): 76.7 µM (inactive) | GI50 (SF-295): > 100 µM (inactive) | GI50 (SN12C): > 100 µM (inactive) | GI50 (HT-29): > 100 µM (inactive) | GI50 (COLO 205): 50.7 µM (inactive) | GI50 (K562): > 100 µM (inactive) | GI50 (SNB-19): > 100 µM (inactive) | GI50 (PC-3): > 100 µM (inactive) | GI50 (TK-10): > 100 µM (inactive) | GI50 (EKVX): 99.5 µM (inactive) | GI50 (MDA-MB-435): > 100 µM (inactive) | GI50 (CAKI-1): 90.6 µM (inactive) | GI50 (OVCAR-3): 82 µM (inactive) | GI50 (IGROV-1): 49.5 µM (inactive) | GI50 (SNB-75): 23.3 µM (inactive) | GI50 (HOP-62): > 100 µM (inactive) | GI50 (MDA-N): > 100 µM (inactive) | GI50 (A549): > 100 µM (inactive) | GI50 (UACC-257): 85.5 µM (inactive) | GI50 (LOX IMVI): 72.1 µM (inactive)

Cc1ccc(-c2nnc(CCCCCCCCc3nnc(-c4ccc(C)cc4O)n3N)n2N)c(O)c1
GI50 (OVCAR-8): > 100 µM (inactive) | GI50 (M14): > 100 µM (inactive) | GI50 (HCT-15): > 100 µM | GI50 (NCI-H460): > 100 µM (inactive) | GI50 (HCC 2998): > 100 µM (inactive) | GI50 (NCI/ADR-RES): > 100 µM (inactive) | GI50 (CCRF-CEM): > 10 µM (inactive) | GI50 (RPMI-8226): > 100 µM (inactive) | GI50 (786-0): 85.1 µM (inactive) | GI50 (KM12): > 100 µM (inactive) | GI50 (UO-31): > 100 µM (inactive) | GI50 (DU-145): > 100 µM (inactive) | GI50 (SR): > 100 µM (inactive) | GI50 (MOLT-4): 33 µM (inactive) | GI50 (SF-268): > 100 µM (inactive) | GI50 (A498): > 100 µM (inactive) | GI50 (NCI-H23): > 100 µM (inactive) | GI50 (OVCAR-4): > 100 µM (inactive) | GI50 (HL-60): > 10 µM (inactive) | GI50 (MCF7): > 100 µM (inactive) | GI50 (UACC-62): > 100 µM (inactive) | GI50 (Malme-3M): > 100 µM (inactive) | GI50 (HCT-116): > 100 µM (inactive) | GI50 (SF-539): > 100 µM (inactive) | GI50 (Hs-578T): 44.9 µM (inactive) | GI50 (SK-MEL-28): > 100 µM (inactive) | GI50 (NCI-H522): > 100 µM (inactive) | GI50 (ACHN): > 100 µM (inactive) | GI50 (MDA-MB-231): > 100 µM (inactive) | GI50 (U-251): > 100 µM (inactive) | GI50 (SW-620): > 100 µM (inactive) | GI50 (OVCAR-5): > 100 µM (inactive) | GI50 (SF-295): 77.1 µM (inactive) | GI50 (SN12C): > 100 µM (inactive) | GI50 (COLO 205): > 100 µM (inactive) | GI50 (SNB-19): 61.8 µM (inactive) | GI50 (TK-10): > 100 µM (inactive) | GI50 (EKVX): > 100 µM (inactive) | GI50 (MDA-MB-435): > 100 µM (inactive) | GI50 (CAKI-1): > 100 µM (inactive) | GI50 (OVCAR-3): > 100 µM (inactive) | GI50 (SK-OV-3): 39.2 µM (inactive) | GI50 (IGROV-1): > 100 µM (inactive) | GI50 (SNB-75): 33.9 µM (inactive) | GI50 (SK-MEL-2): > 100 µM (inactive) | GI50 (MDA-N): > 100 µM (inactive) | GI50 (HOP-92): 9.71 µM (inactive) | GI50 (A549): > 100 µM (inactive) | GI50 (UACC-257): > 100 µM (inactive) | GI50 (T47D): 56.5 µM (inactive) | GI50 (LOX IMVI): > 100 µM (inactive)
